Results as given in the NIST ThermoML archive (doi:10.1016/j.jct.2016.09.010).

Assay: xn = mol fraction of the nth substance listed
Details: 100 kPa, Liquid; for speed of sound: Frequency=2 MHz, Linear variable-path acoustic interferometer; for mass density: Vibrating tube method

CCOC(=O)C(C)O (stereo not drawn) [DL-ethyl lactate] + Nc1ccccc1
Details | mass density, 303.15 K [kg/m3] | mass density, 308.15 K [kg/m3] | mass density, 313.15 K [kg/m3] | mass density, 318.15 K [kg/m3] | speed of sound, 303.15 K [m/s] | speed of sound, 308.15 K [m/s] | speed of sound, 313.15 K [m/s] | speed of sound, 318.15 K [m/s]
x1 = 0.0788 | 1014.12 | 1010.12 | 1005.75 | 1001.3 | 1588.7 | 1570.3 | 1550.3 | 1531.4
x1 = 0.1638 | 1015.39 | 1011.23 | 1006.72 | 1002.15 | 1560.8 | 1542.5 | 1522.7 | 1504
x1 = 0.2514 | 1016.56 | 1012.23 | 1007.57 | 1002.88 | 1531.4 | 1513.2 | 1493.5 | 1474.8
x1 = 0.3445 | 1017.64 | 1013.15 | 1008.36 | 1003.55 | 1499.5 | 1481.4 | 1461.8 | 1443.2
x1 = 0.4393 | 1018.65 | 1014 | 1009.09 | 1004.17 | 1466.5 | 1448.5 | 1429 | 1410.5
x1 = 0.5461 | 1019.69 | 1014.87 | 1009.83 | 1004.79 | 1428.6 | 1410.8 | 1391.4 | 1373.1
x1 = 0.6484 | 1020.59 | 1015.62 | 1010.46 | 1005.31 | 1391.7 | 1374.1 | 1354.9 | 1336.8
x1 = 0.7644 | 1021.47 | 1016.33 | 1011.05 | 1005.79 | 1349.3 | 1331.9 | 1312.9 | 1295
x1 = 0.8737 | 1022.17 | 1016.88 | 1011.49 | 1006.13 | 1308.3 | 1291.1 | 1272.3 | 1254.7
x1 = 1 | 1022.88 | 1017.39 | 1011.83 | 1006.31 | 1261.1 | 1243.8 | 1224.8 | 1206.9

CCNc1ccccc1 [N-ethylaminobenzene] + CCOC(=O)C(C)O
Details | mass density, 303.15 K [kg/m3] | mass density, 308.15 K [kg/m3] | mass density, 313.15 K [kg/m3] | mass density, 318.15 K [kg/m3] | speed of sound, 303.15 K [m/s] | speed of sound, 308.15 K [m/s] | speed of sound, 313.15 K [m/s] | speed of sound, 318.15 K [m/s]
x2 = 0 | 952.41 | 947.69 | 942.95 | 938.23 | 1497 | 1481 | 1464 | 1448
x2 = 0.1195 | 960.29 | 955.52 | 950.71 | 945.92 | 1471.1 | 1455.4 | 1438.5 | 1422.6
x2 = 0.2183 | 966.93 | 962.08 | 957.2 | 952.34 | 1449.5 | 1433.6 | 1416.6 | 1400.6
x2 = 0.3177 | 973.69 | 968.76 | 963.8 | 958.86 | 1427.2 | 1411.2 | 1394 | 1377.7
x2 = 0.424 | 981.03 | 976.02 | 970.97 | 965.95 | 1402.7 | 1386.6 | 1369.2 | 1352.7
x2 = 0.5225 | 987.95 | 982.86 | 977.73 | 972.63 | 1379.6 | 1363.4 | 1345.8 | 1329.1
x2 = 0.6209 | 994.95 | 989.79 | 984.58 | 979.4 | 1355.9 | 1339.6 | 1321.8 | 1305
x2 = 0.726 | 1002.55 | 997.31 | 992.01 | 986.75 | 1330 | 1313.6 | 1295.6 | 1278.6
x2 = 0.8128 | 1008.91 | 1003.61 | 998.24 | 992.91 | 1308.3 | 1291.7 | 1273.6 | 1256.4
x2 = 0.9074 | 1015.91 | 1010.52 | 1005.09 | 999.68 | 1284.5 | 1267.6 | 1249.2 | 1231.8

CNc1ccccc1 [N-methylaniline] + CCOC(=O)C(C)O
Details | mass density, 303.15 K [kg/m3] | mass density, 308.15 K [kg/m3] | mass density, 313.15 K [kg/m3] | mass density, 318.15 K [kg/m3] | speed of sound, 303.15 K [m/s] | speed of sound, 308.15 K [m/s] | speed of sound, 313.15 K [m/s] | speed of sound, 318.15 K [m/s]
x2 = 0 | 978.2 | 973.53 | 969.92 | 964.9 | 1547 | 1526.9 | 1511 | 1491.4
x2 = 0.1018 | 983.17 | 978.45 | 974.67 | 969.62 | 1520.1 | 1500.8 | 1485 | 1466.1
x2 = 0.1939 | 987.58 | 982.78 | 978.81 | 973.71 | 1495.5 | 1476.5 | 1460.5 | 1441.7
x2 = 0.2814 | 991.69 | 986.81 | 982.67 | 977.52 | 1471.8 | 1452.9 | 1436.6 | 1417.8
x2 = 0.3934 | 996.86 | 991.88 | 987.51 | 982.3 | 1440.7 | 1422.1 | 1405.4 | 1386.7
x2 = 0.491 | 1001.27 | 996.21 | 991.65 | 986.39 | 1413.1 | 1394.7 | 1377.7 | 1359.2
x2 = 0.5902 | 1005.66 | 1000.52 | 995.77 | 990.46 | 1384.5 | 1366.4 | 1349.1 | 1330.8
x2 = 0.6894 | 1009.96 | 1004.74 | 999.8 | 994.45 | 1355.5 | 1337.7 | 1320.1 | 1302
x2 = 0.7851 | 1014.03 | 1008.74 | 1003.62 | 998.22 | 1326.8 | 1309.5 | 1291.7 | 1273.8
x2 = 0.8937 | 1018.56 | 1013.19 | 1007.86 | 1002.41 | 1293.5 | 1276.4 | 1258.3 | 1240.7
